The test system of experiment [1] is human pancreatic cancer cell line MiaPaCa2 (ATCC CRL-1420). Briefly: Cell growth assay (CellTiterGlo, 72 hours). The experiment is classed as cell-based. To be noted: for pIC50: MIA PaCa-2, MiaPaCa2 cells, 72 hours, read-out: IC50 MiaPaCa; for inhibition at 100 µM: MIA PaCa-2, at 100 μM; for inhibition at 100 µM / inhibition at 50 µM: read-out: Inhibition of MiaPaCa growth at indicated concentration; for inhibition at 50 µM: MIA PaCa-2, at 50 μM. As for the experimental part: The inhibition of cell growth by the compounds was tested by exposing the human pancreatic cancer cell line MiaPaCa2 (ATCC CRL-1420) to the compounds. The assay was performed in 384 well clear bottom white microtiter plates (Greiner #781098). Each well was seeded with 10^3 cells in 20 μl of Dulbecco's modified Eagle's medium (Sigma D6796) supplied with 10% fetal calf scrum (Sigma F7524), 2.5% horse serum (Sigma H0146), 1% Penicillin-Streptomycin (Sigma P0781), 1% MEM nonessential amino acid solution 100× (Sigma M71459) and 1% 200 mM L-Glutamine (Sigma G7513) culture medium. After overnight incubation at 37° C. in 5% CO2 the compounds were added in the following concentrations: 100, 50, 20, 10, 5, 2, 1, 0.5, 0.2 and 0.1 μM. Each compound concentration was tested in quadruplicate. The incubation was then continued for 72 hours. After 72 hours the growth of the cells was assessed by the addition of the CellTiterGlo reagent (Promega G9242) as instructed by the provider. The luminescent signal was recorded on a SpectraMax M2 microplate reader. The signal obtained in wells containing cells cultivated in the absence of compound was set to 100% growth after subtracting the signal obtained in medium only wells. The % growth in each well was calculated by subtracting the medium only value and dividing through the 100% growth value. The IC50 for cell growth, the concentration of compound at which cell growth was reduced to 50%, was calculated with the GraFit6 software (Erythacus software).
(In general: ATP-based viability assays read luminescence as a measure of living cells.)

Experiment [2] has as its target T1, MNK1 (Homo sapiens, UniProt Q9BUB5).
T1 construct: purchased Life Technologies or Carna Biosciences PV6023 or 02-145; host or cells: baculovirus infected insect cells
Put plainly: MNK inhibition assay (Z-Lyte kinase assay, Ser/Thr 7 peptide). In kind it is biochemical. To be noted: for pIC50: recombinant GST-MNK1, 3 hours at 31° C.; for inhibition at 1 µM / inhibition at 10 µM: read-out: Inhibition of MNK1 activity at indicated concentration. An excerpt: For the measurement of the activity of the MNK1 kinase the Z-Lyte kinase assay system was used. The kinase activity of MNK1 can be quantified with the Z-Lyte kinase assay kit Ser/Thr 7 peptide (Life Technologies PV3180). The kit was utilized according to the instructions of the provider. A recombinant GST-MNK1 fusion protein produced in and purified from baculovirus infected insect cells was used as enzyme source (GST-MNK1 Life Technologies PV6023 or Carna Biosciences 02-145). It was verified that both sources of the MNK1 enzyme gave similar IC50 values with several compounds. The MNK1 enzyme assay was performed in 384 well round bottom black microtiter plates (Corning 3676). The kinase reaction was performed for 3 hours at 31° C. As instructed by the provider of the kit the amount of enzyme was chosen such that ˜30% of the substrate peptide was phosphorylated in control wells containing buffer only. The MNK1 inhibiting activity of compounds was tested by adding the compounds to the kinase reaction at a concentration of 10000, 5000, 2000, 1000, 500, 200, 100, 50 nM. Compounds with strong MNK1 inhibition were tested at 20, 10, 5, 2, 1 and 0.5 nM in addition. Each compound concentration was tested at least in duplicate. The % phosphorylation of the substrate peptide at each compound concentration was calculated as described in the assay manual. The fluorescent signals were recordes on Biotek Cytation 3 microplate reader. The IC50, the concentration that reduced substrate phosphorylation by 50% if compared to buffer only wells, was calculated with the Grafit 6 software (Erythacus software).

Molecules are shown by their SMILES. pIC50: −log10 of the molar value.

T1 sequence (Q9BUB5 whole entry): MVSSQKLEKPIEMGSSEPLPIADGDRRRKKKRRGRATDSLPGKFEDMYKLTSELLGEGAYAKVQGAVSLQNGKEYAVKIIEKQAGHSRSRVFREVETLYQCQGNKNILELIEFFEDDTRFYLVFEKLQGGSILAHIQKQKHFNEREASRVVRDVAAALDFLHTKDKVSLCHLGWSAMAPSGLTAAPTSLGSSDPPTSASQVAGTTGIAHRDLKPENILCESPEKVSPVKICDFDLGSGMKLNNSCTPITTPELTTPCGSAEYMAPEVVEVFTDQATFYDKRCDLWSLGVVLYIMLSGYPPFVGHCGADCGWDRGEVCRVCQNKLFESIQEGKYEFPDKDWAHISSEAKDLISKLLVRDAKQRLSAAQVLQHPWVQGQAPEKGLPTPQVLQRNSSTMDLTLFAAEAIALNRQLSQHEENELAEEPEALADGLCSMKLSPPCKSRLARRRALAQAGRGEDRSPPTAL

As to `NC1CCN(Cc2ccc3cncc(-c4cc5ccccc5o4)c3c2)CC1` [Example 1, 1-[[4-(Benzofuran-2-yl)-6-isoquinolyl]methyl]piperidin-4-amine], the pIC50 in experiment [1] was 5.45; in experiment [2] it was 6.96.

As for `Nc1ccc(-c2cncc3ccc(CN4CCC(N)CC4)cc23)cc1` [Example 2], the negative logarithm of the IC50 (pIC50) in experiment [1] is 4.46; in experiment [2], 7.03.

For the compound `Nc1cccc(-c2cncc3ccc(CN4CCC(N)CC4)cc23)c1` [Example 3], the negative logarithm of the IC50 (pIC50) in experiment [1] was 4.69; in experiment [2] it was 6.07.

For the compound `N#Cc1ccc(-c2cncc3ccc(CN4CCC(N)CC4)cc23)cc1` [Example 4], the negative-log IC50 (pIC50) is 4.59 in experiment [1] and 6.48 in experiment [2].

Consider `N#Cc1cccc(-c2cncc3ccc(CN4CCC(N)CC4)cc23)c1` [Example 5], for which, in experiment [1], the pIC50 was 4.49. Besides, the inhibition at 1 µM in experiment [2] was 39%.

Regarding `NC1CCN(Cc2ccc3cncc(-c4cc5ccccc5[nH]4)c3c2)CC1` [Example 6], the pIC50 was 5.22 in experiment [1] and 6.04 in experiment [2].

For `NC1CCN(Cc2ccc3cncc(-c4ccccc4)c3c2)CC1` [Example 7], the pIC50 in experiment [1] was 4.76; in experiment [2], 6.13.

Regarding `NC1CCN(Cc2ccc3cncc(-c4ccc(Cl)cc4)c3c2)CC1` [Example 9], the pIC50 in experiment [1] is 4.97; in experiment [2], 6.59.

As for `NC1CCN(Cc2ccc3cncc(-c4cccc(Cl)c4)c3c2)CC1` [Example 10], the pIC50 in experiment [1] was 4.93; in experiment [2] it was 6.49.

For the compound `COC(=O)c1ccc(-c2cncc3ccc(CN4CCC(N)CC4)cc23)cc1` [Example 11], in experiment [1], the pIC50 is 5.00. For the same compound, the inhibition at 1 µM in experiment [2] is 33%.

In the case of `COC(=O)c1cccc(-c2cncc3ccc(CN4CCC(N)CC4)cc23)c1` [Example 12], in experiment [1], the inhibition at 100 µM came out at 60%. Further, the inhibition at 10 µM in experiment [2] is 92%.

Consider `NC1CCN(Cc2ccc3cncc(-c4ccncc4)c3c2)CC1` [Example 13], for which the pIC50 is 4.61 in experiment [1] and 6.55 in experiment [2].

For the compound `NC1CCN(Cc2ccc3cncc(-c4cccnc4)c3c2)CC1` [Example 14], in experiment [1], the inhibition at 50 µM stood at 52%. In addition, the inhibition at 1 µM in experiment [2] stood at 34%.

On to `Nc1cc(-c2cncc3ccc(CN4CCC(N)CC4)cc23)ccn1` [Example 16], for which the inhibition at 100 µM in experiment [1] turned out to be 67%. For the same compound, the negative logarithm of the IC50 (pIC50) in experiment [2] is 5.72.

`Nc1ccc(-c2cncc3ccc(CN4CCC(N)CC4)cc23)cn1` [Example 17]: in experiment [1], the inhibition at 50 µM was 61%. Further, the inhibition at 10 µM in experiment [2] is 100%.

As to `CC(=O)Nc1ccc(-c2cncc3ccc(CN4CCC(N)CC4)cc23)cc1` [Example 18, N-[4-[6-[(4-Amino-1-piperidyl)methyl]-4-isoquinolyl]phenyl]acetamide], the pIC50 in experiment [1] is 4.52; in experiment [2] it was 6.34.

Consider `CC(=O)Nc1cccc(-c2cncc3ccc(CN4CCC(N)CC4)cc23)c1` [Example 19], for which the pIC50 in experiment [1] was 4.53. Further, in experiment [2], the inhibition at 1 µM is 39%.

As for `NC(=O)c1ccc(-c2cncc3ccc(CN4CCC(N)CC4)cc23)cc1` [Example 20, 4-[6-[(4-Amino-1-piperidyl)methyl]-4-isoquinolyl]benzamide], the inhibition at 100 µM in experiment [1] was 62%. The inhibition at 1 µM in experiment [2] amounted to 45%.

Consider `NC(=O)c1cccc(-c2cncc3ccc(CN4CCC(N)CC4)cc23)c1` [Example 21], for which the inhibition at 100 µM in experiment [1] stood at 64%. Moreover, in experiment [2], the inhibition at 1 µM was 49%.

With `O=C1CN(Cc2ccc3cncc(-c4ccc(O)cc4)c3c2)CCN1` [Example 22, 4-[[4-(4-Hydroxyphenyl)-6-isoquinolyl]methyl]piperazin-2-one], in experiment [1], the inhibition at 100 µM came out at 69%. In addition, the pIC50 in experiment [2] is 6.18.

With `Oc1ccc(-c2cncc3ccc(CN4CCC(O)CC4)cc23)cc1` [Example 23], the pIC50 was 4.51 in experiment [1] and 5.63 in experiment [2].

For the compound `NCCNCc1ccc2cncc(-c3ccc(O)cc3)c2c1` [Example 24], the pIC50 in experiment [1] was 4.34; in experiment [2] it was 6.03.

Consider `NCCCNCc1ccc2cncc(-c3ccc(O)cc3)c2c1` [Example 25], for which the pIC50 in experiment [1] was 4.84; in experiment [2] it was 6.78.

Take `Oc1ccc(-c2cncc3ccc(CN4CCOCC4)cc23)cc1` [Example 26]: the pIC50 in experiment [1] was 4.27. Also, in experiment [2], the inhibition at 1 µM was determined as 40%.

For `NC1CCN(C(=O)c2ccc3cncc(-c4ccc(O)cc4)c3c2)CC1` [Example 28, (4-Amino-1-piperidyl)-[4-(4-hydroxyphenyl)-6-isoquinolyl]methanone], the pIC50 in experiment [1] is 4.32; in experiment [2], 6.45.

Take `NC1CCN(Cc2ccc3cncc(-c4ccc(NC(=O)Nc5ccccc5)cc4)c3c2)CC1` [Example 31, 1-[4-[6-[(4-Amino-1-piperidyl)methyl]-4-isoquinolyl]phenyl]-3-phenyl-urea]: the pIC50 in experiment [1] is 5.66; in experiment [2] it was 6.32.

Regarding `NC1CCN(Cc2ccc3cncc(-c4cccc(NC(=O)Nc5ccccc5)c4)c3c2)CC1` [Example 32], the figures for the negative-log IC50 (pIC50) in experiment [1] and in experiment [2] were 5.08 and 5.62, respectively.

Regarding `NCCCCNCc1ccc2cncc(-c3ccc(O)cc3)c2c1` [Example 35, 4-[6-[(4-Aminobutylamino)methyl]-4-isoquinolyl]phenol], the pIC50 in experiment [1] is 4.93. Besides, the inhibition at 1 µM in experiment [2] is 56%.

For `CN(CCCN)Cc1ccc2cncc(-c3ccc(O)cc3)c2c1` [Example 36], the pIC50 in experiment [1] is 4.69; in experiment [2], 7.00.

`NC1CCC(NCc2ccc3cncc(-c4ccc(O)cc4)c3c2)CC1` (centres unmarked) [Example 37]: in experiment [1], the inhibition at 50 µM came to 57%. Besides, in experiment [2], the pIC50 was 6.47.

Turning to `NC1CCCC(NCc2ccc3cncc(-c4ccc(O)cc4)c3c2)C1` (centres unmarked) [Example 38], the pIC50 in experiment [1] was 4.60; in experiment [2] it was 6.45.

In the case of `Oc1ccc(-c2cncc3ccc(CNC4CCNCC4)cc23)cc1` [Example 40], the inhibition at 100 µM in experiment [1] was 48%. In experiment [2], the pIC50 was 6.58.

As for `Oc1ccc(-c2cncc3ccc(CNC4CCNC4)cc23)cc1` (centres unmarked) [Example 41], the inhibition at 100 µM in experiment [1] was 67%. The pIC50 in experiment [2] is 6.60.

Turning to `NC1CCC(NCc2ccc3cncc(-c4ccc(O)cc4)c3c2)C1` (centres unmarked) [Example 42, 4-[6-[[(3-Aminocyclopentyl)amino]methyl]-4-isoquinolyl]phenol], the inhibition at 50 µM in experiment [1] stood at 44%. The pIC50 in experiment [2] is 6.30.

With `CN(C)CCCNCc1ccc2cncc(-c3ccc(O)cc3)c2c1` [Example 43, 4-[6-[[3-(Dimethylamino)propylamino]methyl]-4-isoquinolyl]phenol], the pIC50 is 4.49 in experiment [1] and 6.66 in experiment [2].

On to `NCCCOCc1ccc2cncc(-c3ccc(O)cc3)c2c1` [Example 44, 4-[6-(3-Aminopropoxymethyl)-4-isoquinolyl]phenol], for which the results for the pIC50 in experiment [1] and in experiment [2] were 4.69 and 7.21, respectively.

Turning to `CN(C)C1CCN(Cc2ccc3cncc(-c4cc5ccccc5o4)c3c2)CC1` [Example 46, 1-[[4-(Benzofuran-2-yl)-6-isoquinolyl]methyl]-N,N-dimethyl-piperidin-4-amine], the results for the pIC50 in experiment [1] and in experiment [2] were 5.09 and 6.21, respectively.

On to `CN1CCN(Cc2ccc3cncc(-c4cc5ccccc5o4)c3c2)CC1` [Example 47], for which the results for the pIC50 in experiment [1] and in experiment [2] were 4.96 and 5.95, respectively.

On to `Nc1cccc(NCc2ccc3cncc(-c4cc5ccccc5o4)c3c2)c1` [Example 48], for which the pIC50 in experiment [1] was 4.60; in experiment [2], 5.94.

`N[C@H]1CC[C@@H](Nc2ccc3cncc(-c4cc5ccccc5o4)c3c2)CC1` [Example 81, N4-[4-(Benzofuran-2-yl)-6-isoquinolyl]cyclohexane-1,4-diamine]: the pIC50 in experiment [1] is 5.66.

For `c1ccc2oc(-c3cncc4ccc(NC5CCNCC5)cc34)cc2c1` [Example 82], the pIC50 in experiment [1] is 5.66.

A word on the pIC50: it is the IC50 on a negative log10 scale, so that one unit is a factor of ten.

The values above are taken from patent US20200031811A1, “SUBSTITUTED MONO- AND POLYAZANAPHTHALENE DERIVATIVES AND THEIR USE” (Basilea Pharmaceutica International AG, priority 2015, published 2020).
